“And” between values parts separate entries of the source, which are not always exact repeats. Equal values may be shown once. Read-outs that look alike come from different tables or passages of the source.
What was measured:
human ABCB1 = system: T1, human ABCB1; assay: Transepithelial transport, MDCK-II cells transduced with hABCB1; format: in vitro ADME; conditions: MDCK-MDR1, pH 7.4, with zosuquidar 5 µM, MDCK-II hABCB1, 5 µM, + zosuquidar 5 µM, read-out: efflux transport ratio r
T1 construct: expressed in transfected cells; host or cells: MDCK-II cells stably transduced with hABCB1 cDNA (made in the authors' institute)
From the text: Polarized Madin-Darby Canine Kidney (MDCK-II) cells (ECACC 00062107) stably transduced with either human (h) ABCB1, hABCG2 or mouse (m) Abcg2 cDNA were generated in our institute between 1995–2005. The proper identity and functionality, such as highly characteristic growth and drug transporter properties, including inhibitor sensitivity, were regularly checked in these epithelial cells. Mycoplasma routinely tested negative in these cells. The passage number was 10–15 when used in the transport experiments.
Transepithelial transport experiments were performed as previously described with 12-well plates (Transwell 3414, Corning Inc., Kennebunk, ME, USA) containing microporous polycarbonate membrane filters (3.0 µm pore size, 12 mm diameter). […]
After pre-incubation with 5 µM zosuquidar (ABCB1 inhibitor) and/or 5 µM Ko143 (ABCG2/Abcg2 inhibitor) in both compartments (when appropriate) for 1 h, the transport phase was initiated (t = 0) by replacing the medium in apical and basolateral compartments with fresh DMEM with 10% FBS and the appropriate inhibitor(s), and repotrectinib at 5 µM in the donor compartment. […] The active transport ratio r, calculated by dividing the amount of apically directed drug transport by basolaterally directed drug translocation after 8 h, was used to assess active transport of repotrectinib.

[1] = 4-h oral plasma pharmacokinetics and tissue distribution, male wild-type and Oatp1a/1b−/− mice; format: in vivo; conditions: 10 mg/kg oral; for Tmax: Table S2, median (range); for Fold change Cliver / Fold change SIC (% of dose) / Fold change ratio (SIC (%)-to-plasma) / Fold change ratio (brain-to-plasma) / Fold change ratio (liver-to-plasma) / Fold change ratio (testis-to-plasma) / Fold increase Cbrain / Fold increase Ctestis / Fold increase AUC0-4h: vs wild-type; for Kp at 4 h / concentration at 4 h / Cmax / AUC(0-t): male, po; for AUC(0-t): read-out: AUC0-4h
From the text: Mice with similar average ages (and body weights) were randomly allocated in experimental groups as far as possible. Mice were maintained in a temperature-controlled and specific pathogen-free environment with a 12-h light and 12-h dark cycle and they received a standard diet (Transbreed, SDS Diets, Technilab-BMI, Someren, The Netherlands) and acidified water ad libitum. […] Given the objective main readout (repotrectinib plasma and tissue concentrations as measured by LC-MS/MS), no blinding method was applied.
Repotrectinib was dissolved in dimethyl sulfoxide (DMSO) at a concentration of 50 mg/mL. This stock solution was first diluted 3-fold with ethanol/polysorbate 80 (1/1; v/v), followed by further dilution with a 10 mM hydrochloric acid solution, yielding a dosing solution of 1 mg/mL, freshly prepared on the day of experiment. Final concentrations of the solvents in the administration solution were: 2%, 2%, 2%, and 94% (all v/v) for DMSO, ethanol, polysorbate 80, and 10 mM hydrochloric acid solution, respectively.
To minimize variation in absorption upon oral administration, mice were fasted for 2–3 h before repotrectinib (10 mg/kg body weight) was administered by gavage into the stomach at 10 µL/g body weight, with a blunt-ended needle. Tail vein serial blood samples were collected at 0.125, 0.25, 0.5, 1, 2 and 4 h using heparinized capillary tubes (Sarstedt, Nümbrecht, Germany) for the 8-h experiments. For the 4- and 2-h experiments, blood samplings were performed from the tail vein with the same schedule, but terminated at 2 and 1 h, respectively. Eight, four, or two hours after oral administration, mice were deeply anesthetized with 2–3% isoflurane, followed by cardiac puncture to collect blood in Eppendorf tubes containing heparin as an anticoagulant. Brain, liver, spleen, kidney, lung, small intestine, and testis were rapidly collected after sacrificing the mice by cervical dislocation. The small intestinal contents (SIC) were separated from small intestinal tissue (SI), which was flushed and rinsed with cold saline to remove any residual feces. Brain, liver, spleen, kidney, lung, SI, SIC, and testis were homogenized with 1, 3, 1, 2, 1, 3, 2, and 1 mL of 2% BSA (w/v), respectively. Plasma fraction was isolated from blood by centrifugation at 9000× g for 6 min at 4 °C. All samples were stored at −30 °C until analysis.
A sensitive and specific liquid chromatography-tandem mass spectrometry method using protein precipitation pre-treatment was adopted to quantify the concentration of repotrectinib in DMEM medium, plasma samples and tissue homogenates.
A non-compartmental model using the PKSolver add-in program for Microsoft Excel was adopted to calculate the pharmacokinetic parameters of repotrectinib. Oral availability was assessed by the plasma area under the curve (AUC), calculated using repotrectinib plasma concentration-time curves with the linear trapezoidal rule without extrapolating the infinity. Statistical testing was performed in Graphpad Prism7 (Graphpad Software, La Jolla, CA, USA). All data are presented as geometric means ± SD. Heteroscedastic data were log-transformed before applying statistical analysis. When differences between two groups were compared, the two-sided unpaired Student’s t test was used. One-way analysis of variance (ANOVA) was applied when multiple groups were compared, and the Bonferroni post hoc correction was used to accommodate multiple testing. Differences were considered statistically significant when P < 0.05.

[2] = Table S2, male Oatp1a/1b−/− mice
[3] = FVB, mouse, plasma, 10 mg/kg, Table S2, male Oatp1a/1b−/− mice
[4] = FVB, mouse, plasma, 10 mg/kg, Table S2, male wild-type mice

For `C[C@H]1CNC(=O)c2cnn3ccc(nc23)N[C@H](C)c2cc(F)ccc2O1` [repotrectinib], the efflux ratio at 8 h, 5 µM (human ABCB1) was 1.1, the Tmax ([1]; FVB, mouse, plasma, male wild-type mice, read-out: Tmax) was 30 min and the “SIC (% of dose)” value [1, 2] was 8.52 ± 3.80 % of dose. The “SIC (%)-to-plasma ratio” value [1, 2] was 5.81 ± 2.09 *10-3, the “Fold change Cliver” value [1, 2] was 0.94 and the “Fold change SIC (% of dose)” value [1, 2] was 1.53. The “Fold change ratio (SIC (%)-to-plasma)” value [1, 2] was 0.66, the “Fold change ratio (brain-to-plasma)” value [1, 2] was 1.20 and the “Fold change ratio (liver-to-plasma)” value [1, 2] was 0.41. The “Fold change ratio (testis-to-plasma)” value [1, 2] was 0.79, the “Fold increase Cbrain” value [1, 2] was 2.71 and the “Fold increase Ctestis” value [1, 2] was 1.70. The “Fold increase AUC0-4h” value ([1]; Table S2, male Oatp1a/1b−/− mice, 10 mg/kg) was 2.02 and 2, the “SIC (% of dose)” value ([1]; Table S2, male wild-type mice) was 5.56 ± 1.34 % of dose and the “SIC (%)-to-plasma ratio” value ([1]; Table S2, male wild-type mice) was 8.79 ± 2.41 *10-3. The “Fold change Cliver” value ([1]; Table S2, male wild-type mice) was 1.00, the “Fold change SIC (% of dose)” value ([1]; Table S2, male wild-type mice) was 1.00 and the “Fold change ratio (SIC (%)-to-plasma)” value ([1]; Table S2, male wild-type mice) was 1.00. The “Fold change ratio (brain-to-plasma)” value ([1]; Table S2, male wild-type mice) was 1.00, the “Fold change ratio (liver-to-plasma)” value ([1]; Table S2, male wild-type mice) was 1.00 and the “Fold change ratio (testis-to-plasma)” value ([1]; Table S2, male wild-type mice) was 1.00. For the same compound, the “Fold increase AUC0-4h” value ([1]; Table S2, male wild-type mice) was 1.00, the “Fold increase Cbrain” value ([1]; Table S2, male wild-type mice) was 1.00 and the “Fold increase Ctestis” value ([1]; Table S2, male wild-type mice) was 1.00. For the same compound, the Tmax ([1]; male Oatp1a/1b−/− mice) was 0.5 (0.25-1) h, the “liver-to-plasma ratio, fold decrease” value ([1]; male Oatp1a/1b−/− mice vs wild-type) was 2.5 fold and the Kp at 4 h ([1]; FVB, mouse, brain, 10 mg/kg, Table S2, male Oatp1a/1b−/− mice, read-out: Brain-to-plasma ratio) was 0.18 ± 0.04. It also gave a concentration at 4 h ([1]; FVB, mouse, brain, 10 mg/kg, Table S2, male Oatp1a/1b−/− mice, read-out: Cbrain) of 258 ± 31 ng/g, a Kp at 4 h ([1]; FVB, mouse, brain, 10 mg/kg, Table S2, male wild-type mice, read-out: Brain-to-plasma ratio) of 0.15 ± 0.03 and a concentration at 4 h ([1]; FVB, mouse, brain, 10 mg/kg, Table S2, male wild-type mice, read-out: Cbrain) of 95.1 ± 23.5 ng/g. The concentration at 4 h ([1]; FVB, mouse, liver, 10 mg/kg, Table S2, male Oatp1a/1b−/− mice, read-out: Cliver) was 6240 ± 1400 ng/g, the Kp at 4 h ([1]; FVB, mouse, liver, 10 mg/kg, Table S2, male Oatp1a/1b−/− mice, read-out: Liver-to-plasma ratio) was 4.3 ± 0.5 and the concentration at 4 h ([1]; FVB, mouse, liver, 10 mg/kg, Table S2, male wild-type mice, read-out: Cliver) was 6630 ± 1160 ng/g. The Kp at 4 h ([1]; FVB, mouse, liver, 10 mg/kg, Table S2, male wild-type mice, read-out: Liver-to-plasma ratio) was 10.5 ± 1.9, the Cmax [1, 3] was 5070 ± 590 ng/mL and the AUC(0-t) [1, 3] was 14100 ± 1530 ng·h/mL. For the same compound, the Cmax [1, 4] was 3080 ± 1440 ng/mL, the AUC(0-t) [1, 4] was 6990 ± 2460 ng·h/mL and the concentration at 4 h ([1]; FVB, mouse, testis, 10 mg/kg, Table S2, male Oatp1a/1b−/− mice, read-out: Ctestis) was 264 ± 37 ng/g. It also gave a Kp at 4 h ([1]; FVB, mouse, testis, 10 mg/kg, Table S2, male Oatp1a/1b−/− mice, read-out: Testis-to-plasma ratio) of 0.19 ± 0.05, a concentration at 4 h ([1]; FVB, mouse, testis, 10 mg/kg, Table S2, male wild-type mice, read-out: Ctestis) of 155 ± 55 ng/g and a Kp at 4 h ([1]; FVB, mouse, testis, 10 mg/kg, Table S2, male wild-type mice, read-out: Testis-to-plasma ratio) of 0.24 ± 0.07.
